In patent US9944647B2 (Incyte Corporation, priority 2015, dated 2018):

Target: LSD-1 enzyme (Homo sapiens (Human), UniProt O60341)
Test: LANCE LSD1/KDM1A demethylase assay (LSD1 histone demethylase biochemical assay)
Conditions: 1 nM LSD-1 enzyme, 1 hour preincubation at 25° C., Biotin-labeled Histone H3 peptide substrate
Method: Example A: LSD1 Histone Demethylase Biochemical Assay
LANCE LSD1/KDM1A demethylase assay—10 μL of 1 nM LSD-1 enzyme (ENZO BML-SE544-0050) in the assay buffer (50 mM Tris, pH 7.5, 0.01% Tween-20, 25 mM NaCl, 5 mM DTT) were preincubated for 1 hour at 25° C. with 0.8 μL compound/DMSO dotted in black 384 well polystyrene plates. […] Reactions were stopped by addition of 10 μL 1×LANCE Detection Buffer (PerkinElmer CR97-100) supplemented with 1.5 nM Eu-anti-unmodified H3K4 Antibody (PerkinElmer TRF0404), and 225 nM LANCE Ultra Streptavidin (PerkinElmer TRF102) along with 0.9 mM Tranylcypromine-HCl (Millipore 616431). After stopping the reactions plates were incubated for 30 minutes and read on a PHERAstar FS plate reader (BMG Labtech).

SMILES	IC50
CCN1CCC[C@@H](COc2nc(-c3ccc(C#N)cc3)c(-c3cnc4c(cnn4C)c3)c3nccn23)C1 [Example 29, 4-[5-{[(3R)-1-ethylpiperidin-3-yl]methoxy}-8-(1-methyl-1H-pyrazolo[3,4-b]pyridin-5-yl)imidazo[1,2-c]pyrimidin-7-yl]benzonitrile]	≤ 50 nM
Cc1cc(-c2c(-c3ccc(C#N)cc3)nc(OC[C@@H]3CCCN(C)C3)n3ccnc23)cc(F)c1CO [Example 30, 4-(8-[3-fluoro-4-(hydroxymethyl)-5-methylphenyl]-5-{[(3R)-1-methylpiperidin-3-yl]methoxy}imidazo[1,2-c]pyrimidin-7-yl)benzonitrile]	≤ 50 nM
CN1CCC[C@@H](COc2nc(-c3ccc(C#N)cc3)c(-c3ccc(CO)c(F)c3)c3nccn23)C1 [Example 31, 4-(8-[3-fluoro-4-(hydroxymethyl)phenyl]-5-{[(3R)-1-methylpiperidin-3-yl]methoxy}imidazo[1,2-c]pyrimidin-7-yl)benzonitrile]	≤ 50 nM
CN1CCC[C@@H](COc2nc(-c3ccc(C#N)cc3)c(-c3cc(F)c(CO)c(F)c3)c3nccn23)C1 [Example 32, 4-(8-[3,5-difluoro-4-(hydroxymethyl)phenyl]-5-{[(3R)-1-methylpiperidin-3-yl]methoxy}imidazo[1,2-c]pyrimidin-7-yl)benzonitrile]	≤ 50 nM
Cn1ncc2cc(-c3c(-c4ccc(C#N)cc4)nc(OC[C@@H]4CCCN(CCC#N)C4)n4ccnc34)cnc21 [Example 33, 4-[5-{[(3R)-1-(2-cyanoethyl)piperidin-3-yl]methoxy}-8-(1-methyl-1H-pyrazolo[3,4-b]pyridin-5-yl)imidazo[1,2-c]pyrimidin-7-yl]benzonitrile]	≤ 50 nM
Cn1ncc2cc(-c3c(-c4ccc(C#N)cc4)nc(OC[C@@H]4CCCN(CCO)C4)n4ccnc34)cnc21 [Example 34, 4-[5-{[(3R)-1-(2-hydroxyethyl)piperidin-3-yl]methoxy}-8-(1-methyl-1H-pyrazolo[3,4-b]pyridin-5-yl)imidazo[1,2-c]pyrimidin-7-yl]benzonitrile]	≤ 50 nM
Cc1cc(-c2c(-c3ccc(C#N)cc3)nc(OC[C@@H]3CCCN(C)C3)n3ccnc23)ccc1CO [Example 35, 4-(8-[4-(hydroxymethyl)-3-methylphenyl]-5-{[(3R)-1-methylpiperidin-3-yl]methoxy}imidazo[1,2-c]pyrimidin-7-yl)benzonitrile]	≤ 50 nM
CN1CCC[C@@H](COc2nc(-c3ccc(C#N)cc3)c(-c3ccc(CO)cc3)c3nccn23)C1 [Example 36, 4-(8-[4-(hydroxymethyl)phenyl]-5-{[(3R)-1-methylpiperidin-3-yl]methoxy}imidazo[1,2-c]pyrimidin-7-yl)benzonitrile]	≤ 50 nM
CN(C)C1CCN(c2nc(-c3ccc(C#N)cc3)c(-c3cnc4c(cnn4C)c3)c3nccn23)CC1 [Example 37, 4-[5-[4-(dimethylamino)piperidin-1-yl]-8-(1-methyl-1H-pyrazolo[3,4-b]pyridin-5-yl)imidazo[1,2-c]pyrimidin-7-yl]benzonitrile]	≤ 50 nM
CN(C)[C@@H]1CCN(c2nc(-c3ccc(C#N)cc3)c(-c3cnc4c(cnn4C)c3)c3nccn23)C1 [Example 38, 4-[5-[(3R)-3-(dimethylamino)pyrrolidin-1-yl]-8-(1-methyl-1H-pyrazolo[3,4-b]pyridin-5-yl)imidazo[1,2-c]pyrimidin-7-yl]benzonitrile]	≤ 50 nM
CN1CCC2(CCN(c3nc(-c4ccc(C#N)cc4)c(-c4cnc5c(cnn5C)c4)c4nccn34)C2)C1 (stereo not shown) [Example 39, 4-[5-(7-methyl-2,7-diazaspiro[4.4]non-2-yl)-8-(1-methyl-1H-pyrazolo[3,4-b]pyridin-5-yl)imidazo[1,2-c]pyrimidin-7-yl]benzonitrile]	≤ 50 nM
COC(=O)N(C)Cc1ccc(-c2c(-c3ccc(C#N)cc3)nc(OC[C@@H]3CCCN(C)C3)n3ccnc23)cc1F [Example 40, methyl[4-(7-(4-cyanophenyl)-5-{[(3R)-1-methylpiperidin-3-yl]methoxy}imidazo[1,2-c]pyrimidin-8-yl)-2-fluorobenzyl]methylcarbamate]	≤ 50 nM
COCCN1CCC[C@@H](COc2nc(-c3ccc(C#N)cc3)c(-c3cnc4c(cnn4C)c3)c3nccn23)C1 [Example 41, 4-[5-{[(3R)-1-(2-methoxyethyl)piperidin-3-yl]methoxy}-8-(1-methyl-1H-pyrazolo[3,4-b]pyridin-5-yl)imidazo[1,2-c]pyrimidin-7-yl]benzonitrile]	≤ 50 nM
CN1CCC[C@@H](COc2nc(-c3ccc(C#N)cc3)c(-c3ccc4c(c3)c(N)nn4C)c3nccn23)C1 [Example 42, 4-(8-(3-amino-1-methyl-1H-indazol-5-yl)-5-{[(3R)-1-methylpiperidin-3-yl]methoxy}imidazo[1,2-c]pyrimidin-7-yl)benzonitrile]	≤ 50 nM
CN1CCC[C@@H](COc2nc(-c3ccc(C#N)cc3)c(-c3ccc4c(c3)OC(=O)N(C)C4)c3nccn23)C1 [Example 43, 4-(8-(3-methyl-2-oxo-3,4-dihydro-2H-1,3-benzoxazin-7-yl)-5-{[(3R)-1-methylpiperidin-3-yl]methoxy}imidazo[1,2-c]pyrimidin-7-yl)benzonitrile]	≤ 50 nM
CN1CCC[C@@H](COc2nc(-c3ccc(C#N)cc3)c(-c3ccc4c(c3)n(C)c(=O)n4C)c3nccn23)C1 [Example 44, 4-(8-(1,3-dimethyl-2-oxo-2,3-dihydro-1H-benzimidazol-5-yl)-5-{[(3R)-1-methylpiperidin-3-yl]methoxy}imidazo[1,2-c]pyrimidin-7-yl)benzonitrile]	50 to 500 nM
CN1CCC[C@@H](COc2nc(-c3ccc(C#N)cc3)c(-c3cc4oc(=O)n(C)c4cc3F)c3nccn23)C1 [Example 45, 4-(8-(5-fluoro-3-methyl-2-oxo-2,3-dihydro-1,3-benzoxazol-6-yl)-5-{[(3R)-1-methylpiperidin-3-yl]methoxy}imidazo[1,2-c]pyrimidin-7-yl)benzonitrile]	≤ 50 nM
CN(C)C1CCN(c2nc(-c3ccc(C#N)cc3)c(-c3ccc4c(cnn4C)c3)c3nccn23)CC1 [Example 46, 4-[5-[4-(dimethylamino)piperidin-1-yl]-8-(1-methyl-1H-indazol-5-yl)imidazo[1,2-c]pyrimidin-7-yl]benzonitrile]	≤ 50 nM
CN(C)C1CCN(c2nc(-c3ccc(C#N)cc3)c(-c3ccc4c(c3)oc(=O)n4C)c3nccn23)CC1 [Example 47, 4-[5-[4-(dimethylamino)piperidin-1-yl]-8-(3-methyl-2-oxo-2,3-dihydro-1,3-benzoxazol-6-yl)imidazo[1,2-c]pyrimidin-7-yl]benzonitrile]	≤ 50 nM
COc1ccc(-c2c(-c3ccc(C#N)cc3)nc(N3CCC(N(C)C)CC3)n3ccnc23)cn1 [Example 48, 4-[5-[4-(dimethylamino)piperidin-1-yl]-8-(6-methoxypyridin-3-yl)imidazo[1,2-c]pyrimidin-7-yl]benzonitrile]	50 to 500 nM
COc1ncc(-c2c(-c3ccc(C#N)cc3)nc(N3CCC(N(C)C)CC3)n3ccnc23)cc1F [Example 49, 4-[5-[4-(dimethylamino)piperidin-1-yl]-8-(5-fluoro-6-methoxypyridin-3-yl)imidazo[1,2-c]pyrimidin-7-yl]benzonitrile]	≤ 50 nM
CN(C)C1CCN(c2nc(-c3ccc(C#N)cc3)c(-c3ccc(N4CCCC4=O)nc3)c3nccn23)CC1 [Example 50, 4-{5-[4-(dimethylamino)piperidin-1-yl]-8-[6-(2-oxopyrrolidin-1-yl)pyridin-3-yl]imidazo[1,2-c]pyrimidin-7-yl}benzonitrile]	50 to 500 nM
CN1C(=O)COc2cc(-c3c(-c4ccc(C#N)cc4)nc(N4CCC(N(C)C)CC4)n4ccnc34)ccc21 [Example 51, 4-[5-[4-(dimethylamino)piperidin-1-yl]-8-(4-methyl-3-oxo-3,4-dihydro-2H-1,4-benzoxazin-7-yl)imidazo[1,2-c]pyrimidin-7-yl]benzonitrile]	≤ 50 nM
CN(C)C1CCN(c2nc(-c3ccc(C#N)cc3)c(-c3ccc4c(c3)nc(C(F)F)n4C)c3nccn23)CC1 [Example 52, 4-{8-[2-(difluoromethyl)-1-methyl-1H-benzimidazol-5-yl]-5-[4-(dimethylamino)piperidin-1-yl]imidazo[1,2-c]pyrimidin-7-yl}benzonitrile]	≤ 50 nM
COc1ncc(-c2c(-c3ccc(C#N)cc3)nc(N3CCC(N(C)C)CC3)n3ccnc23)cc1C [Example 53, 4-[5-[4-(dimethylamino)piperidin-1-yl]-8-(6-methoxy-5-methylpyridin-3-yl)imidazo[1,2-c]pyrimidin-7-yl]benzonitrile]	≤ 50 nM
CN(C)C1CCN(c2nc(-c3ccc(C#N)cc3)c(-c3cc4oc(=O)n(C)c4cc3F)c3nccn23)CC1 [Example 54, 4-[5-[4-(dimethylamino)piperidin-1-yl]-8-(5-fluoro-3-methyl-2-oxo-2,3-dihydro-1,3-benzoxazol-6-yl)imidazo[1,2-c]pyrimidin-7-yl]benzonitrile]	≤ 50 nM
CCN1CCC[C@@H](COc2nc(-c3ccc(C#N)cc3)c(-c3ccc4c(c3)oc(=O)n4C)c3nccn23)C1 [Example 55, 4-[5-{1[(3R)-1-ethylpiperidin-3-yl]methoxy}-8-(3-methyl-2-oxo-2,3-dihydro-1,3-benzoxazol-6-yl)imidazo[1,2-c]pyrimidin-7-yl]benzonitrile]	≤ 50 nM
COc1ccc(-c2c(-c3ccc(C#N)cc3)nc(OC[C@@H]3CCCN(CCO)C3)n3ccnc23)cn1 [Example 56, 4-[5-{[(3R)-1-(2-hydroxyethyl)piperidin-3-yl]methoxy}-8-(6-methoxypyridin-3-yl)imidazo[1,2-c]pyrimidin-7-yl]benzonitrile]	≤ 50 nM
